pIC50: −log10 of the molar value.
target: T1, Neuropeptide Y receptor type 5 (Homo sapiens, UniProt Q15761); assay: Inhibition of [125I]-PYY binding to recombinant NPY Y5 receptor on HEK293 cell membranes.; assay type: cell-based
T1 sequence (Q15761 whole entry): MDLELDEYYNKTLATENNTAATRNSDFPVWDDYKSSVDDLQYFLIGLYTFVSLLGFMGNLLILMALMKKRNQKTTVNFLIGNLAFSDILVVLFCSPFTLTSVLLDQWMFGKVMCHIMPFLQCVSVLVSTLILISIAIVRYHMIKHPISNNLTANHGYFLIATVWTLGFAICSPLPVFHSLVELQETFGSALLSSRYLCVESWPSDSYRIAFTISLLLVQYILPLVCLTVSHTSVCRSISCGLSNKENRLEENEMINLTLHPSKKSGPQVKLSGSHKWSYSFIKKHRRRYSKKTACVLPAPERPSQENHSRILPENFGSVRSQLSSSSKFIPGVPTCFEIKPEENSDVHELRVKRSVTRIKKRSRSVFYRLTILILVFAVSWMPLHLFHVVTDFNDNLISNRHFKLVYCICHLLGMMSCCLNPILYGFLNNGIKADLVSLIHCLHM

pIC50	Compound
7.40	O=C(NC1CCc2cc(F)ccc2C1Cc1cccnc1)[C@H]1CC[C@H](CNS(=O)(=O)c2ccccc2)CC1 (some centres not stated)
7.64	COc1ccc2c(c1)CCC(NC[C@H]1CC[C@H](CNS(=O)(=O)c3ccccc3F)CC1)C2Cc1cccnc1 (some centres not stated)
8.30	O=C(CN1CC[C@H](NS(=O)(=O)c2ccccc2)C1)NC1CCc2cc(F)ccc2C1Cc1cccnc1 (some centres not stated)
7.57	O=S(=O)(NC[C@H]1CC[C@H](CNC2CCc3cc(F)ccc3C2Cc2cccnc2)CC1)c1ccccc1 (some centres not stated)
7.68	C=CCC1c2ccc(F)cc2CCC1NC[C@H]1CC[C@H](CNS(=O)(=O)c2ccccc2)CC1 (some centres not stated)
8.30	C=CCC1c2ccc(O)cc2CCC1NC[C@H]1CC[C@H](CNS(=O)(=O)c2ccccc2)CC1 (some centres not stated)
8.15	O=S(=O)(NC[C@H]1CC[C@H](CNC2CCc3cc(O)ccc3C2Cc2cccnc2)CC1)c1ccccc1F (some centres not stated)
7.72	O=S(=O)(NC[C@H]1CC[C@H](CNC2CCc3cc(F)ccc3C2Cc2cccnc2)CC1)c1ccccc1F (some centres not stated)
7.66	N[C@@H](CCCCNS(=O)(=O)c1ccccc1F)C(=O)NC1CCc2cc(F)ccc2C1Cc1cccnc1 (some centres not stated)
7.57	O=C(CN1CC[C@@H](NS(=O)(=O)c2ccccc2)C1)NC1CCc2cc(F)ccc2C1Cc1cccnc1 (some centres not stated)
6.05	COc1ccc2c(c1)CCC(NCCc1ccc(OC)c(OC)c1)C2Cc1ccccc1 (configuration not stated)
7.92	O=C(NC1CCc2cc(F)ccc2C1Cc1cccnc1)[C@H]1CC[C@H](CNS(=O)(=O)c2ccccc2F)CC1 (some centres not stated)
7.96	O=C(CN1CCC(NS(=O)(=O)c2ccccc2)C1)NC1CCc2cc(F)ccc2C1Cc1cccnc1 (configuration not stated)
8.00	COc1ccc2c(c1)CCC(NC[C@H]1CC[C@H](CNS(=O)(=O)c3ccccc3)CC1)C2Cc1cccnc1 (some centres not stated)
7.12	C=CCC1c2ccc(F)cc2CCC1NC(=O)[C@H]1CC[C@H](CNS(=O)(=O)c2ccccc2)CC1 (some centres not stated)
8.00	O=C(CN1CCC(NS(=O)(=O)c2ccccc2)CC1)NC1CCc2cc(F)ccc2C1Cc1cccnc1 (configuration not stated)
7.96	COc1ccc2c(c1)CCC(NC(=O)[C@H]1CC[C@H](CNS(=O)(=O)c3ccccc3F)CC1)C2Cc1cccnc1 (some centres not stated)
9.00	N[C@@H](CCCCNS(=O)(=O)c1ccccc1F)CNC1CCc2cc(O)ccc2C1Cc1cccnc1 (some centres not stated)
6.47	COc1ccc2c(c1)CCC(NC[C@H]1CC[C@H](CNS(=O)(=O)c3ccc4ccccc4c3)CC1)C2Cc1cccnc1 (some centres not stated)
7.28	COc1ccc2c(c1)CCC(NCCCCCCNS(=O)(=O)c1ccccc1)C2Cc1cccnc1 (configuration not stated)
7.96	COc1ccc2c(c1)CCC(NC(=O)[C@H]1CC[C@H](CNS(=O)(=O)c3ccccc3)CC1)C2Cc1cccnc1 (some centres not stated)
6.35	COc1ccc2c(c1)CCC(NC[C@H]1CC[C@H](CNS(=O)(=O)c3ccc4ccccc4c3)CC1)C2Cc1ccccc1 (some centres not stated)
